One test concerns ECHCO. Kind of test: Postemergence foliar-applied weed control, direct-seeded rice (greenhouse). Format: in vivo, Echinochloa colonum (L.) LINK (junglerice). Conditions: 19 DAA, r9-11 ester 8/16/32 g ae/ha alone. From the text:
(§1) Seeds or nutlets of the desired test plant species were planted in a soil matrix prepared by mixing aloam or sandy loam soil (e.g., 28.6 percent silt, 18.8 percent clay, and 52.6 percent sand, with a pH of about 5.8 and an organic matter content of about 1.8 percent) and calcareous grit in an 80 to 20 ratio. The soil matrix was contained in plastic pots with a volume of 1 quart and a surface area of 83.6 square centimeters (cm^2). When required to ensure good germination and healthy plants, a fungicide treatment and/or other chemical or physical treatment was applied. The plants were grown for 8-22 days in a greenhouse with an approximate 14 hour (h) photoperiod which was maintained at about 29° C. during the day and 26° C. during the night. Nutrients (Peters Excel® 15-5-15 5-Ca 2-Mg and iron chelate) were applied in the irrigation solution as needed and water was added on a regular basis. Supplemental lighting was provided with overhead metal halide 1000-Watt lamps as necessary. The plants were employed for testing when they reached the first through fourth true leaf stage.
(§2) Treatments consisted of the acid or esters of 4-amino-3-chloro-5-fluoro-6-(4-chloro-2-fluoro-3-methoxy-phenyl)pyridine-2-carboxylic acid (Compound A), each formulated as an SC (suspension concentrate), and various fungicidal components alone and in combination. Forms of compound A were applied on an acid equivalent basis.
(§3) Treatment requirements were calculated based upon the rates being tested, the concentration of active ingredient or acid equivalent in the formulation and a 12 milliliter (mL) application volume at a rate of 187 liters per hectare (L/ha).
(§4) For treatments comprised of formulated compounds, measured amounts of compounds were placed individually in 25 mL glass vials and diluted in a volume of 1.25% volume per volume (v/v) Agri-Dex® crop oil concentrate to obtain 12× stock solutions. […] Application solutions were prepared by adding an appropriate amount of each stock solution (e.g., 1 mL) and diluted to the appropriate final concentrations with the addition of […] of an aqueous mixture of 1.25% (v/v) crop oil concentrate so that the final spray solutions contained 1.25+/−0.05% (v/v) crop oil concentrate.
(§5) For treatments comprised of technical compounds, weighed amounts can be placed individually in 25 mL glass vials and dissolved in a volume of 97:3 volume per volume (v/v) acetone/dimethyl sulfoxide (DMSO) to obtain 12× stock solutions. […] When technical materials are used, the concentrated stock solutions can be added to the spray solutions so that the final acetone and DMSO concentrations of the application solutions are 16.2% and 0.5%, respectively.
(§6) As required, additional water and/or 97:3 v/v acetone/DMSO was added to individual application solutions so that the final acetone and DMSO concentrations of the application solutions being compared were 8.1% and 0.25%, respectively
(§7) All stock solutions and applications solutions were visually inspected for compound compatibility prior to application. Spray solutions were applied to the plant material with an overhead Mandel track sprayer equipped with 8002E nozzles calibrated to deliver 187 L/ha over an application area of 0.503 square meters (m^2) at a spray height of 18 to 20 inches (46 to 50 cm) above average plant canopy height. Control plants were sprayed in the same manner with the solvent blank.
(§8) The treated plants and control plants were placed in a greenhouse as described above and watered by sub-irrigation to prevent wash-off of the test compounds. After approximately 3 weeks, the condition of the test plants as compared with that of the untreated plants was determined visually and scored on a scale of 0 to 100 percent where 0 corresponds to no injury or growth inhibition and 100 corresponds to complete kill. […]

The subject of a further test is CYPRO. Briefly: In-water applied weed control, transplanted paddy rice (greenhouse). Format: in vivo, Cyperus rotundus L. (purple nutsedge). Conditions: 22 DAA. As to the method: Weed seeds or nutlets of the desired test plant species were planted in puddled soil (mud) prepared by mixing a shredded, non-sterilized mineral soil (50.5 percent silt, 25.5 percent clay, and 24 percent sand, with a pH of about 7.6 and an organic matter content of about 2.9 percent) and water at a 1:1 volumetric ratio. The prepared mud was dispensed in 365 mL aliquots into 16-ounce (oz.) non-perforated plastic pots with a surface area of 86.59 square centimeters (cm^2) leaving a headspace of 3 centimeters (cm) in each pot. Rice seeds were planted in Sun Gro MetroMix® 306 planting mixture, which typically has a pH of 6.0 to 6.8 and an organic matter content of about 30 percent, in plastic plug trays. Seedlings at the second or third leaf stage of growth were transplanted into 860 mL of mud contained in 32-oz. non-perforated plastic pots with a surface area of 86.59 cm^2 4 days prior to herbicide application. The paddy was created by filling the headspace of the pots with 2.5 to 3 cm of water. When required to ensure good germination and healthy plants, a fungicide treatment and/or other chemical or physical treatment was applied. The plants were grown for 4-22 days in a greenhouse with an approximate 14 hour (h) photoperiod which was maintained at about 29° C. during the day and about 26° C. during the night. Nutrients were added as Osmocote® (17:6:10, N:P:K+minor nutrients) at 2 g per cup. Water was added on a regular basis to maintain the paddy flood, and supplemental lighting was provided with overhead metal halide 1000-Watt lamps as necessary. The plants were employed for testing when they reached the first through fourth true leaf stage.
Treatments consisted of the acid or esters of 4-amino-3-chloro-5-fluoro-6-(4-chloro-2-fluoro-3-methoxy-phenyl)pyridine-2-carboxylic acid (compound A) each formulated as an SC (suspension concentrate) and various fungicidal components alone and in combination. Forms of compound A were applied on an acid equivalent basis.
Treatment requirements for each compound or fungicidal component were calculated based upon the rates being tested, the concentration of active ingredient or acid equivalent in the formulation, an application volume of 2 mL per component per pot, and an application area of 86.59 cm^2 per pot.
For formulated compounds, a measured amount was placed in an individual 100 or 200 mL glass vial and was dissolved in a volume of 1.25% (v/v) Agri-Dex® crop oil concentrate to obtain application solutions.
For technical grade compounds, a weighed amount was placed in an individual 100 to 200 mL glass vial and dissolved in a volume of acetone to obtain concentrated stock solutions.
Applications were made by injecting with a pipetter appropriate amounts of the application solutions, individually and sequentially, into the aqueous layer of the paddy. Control plants were treated in the same manner with the solvent blank. Applications were made so that all treated plant material received the same concentrations of acetone and crop oil concentrate.
The treated plants and control plants were placed in a greenhouse as described above and water was added as needed to maintain a paddy flood. After approximately 3 weeks the condition of the test plants as compared with that of the untreated plants was determined visually and scored on a scale of 0 to 100 percent where 0 corresponds to no injury or growth inhibition and 100 corresponds to complete kill.
(§9) Colby's equation was used to determine the herbicidal effects expected from the mixtures (Colby, S. R. Calculation of the synergistic and antagonistic response of herbicide combinations. Weeds 1967, 15, 20-22.).
(§10) The following equation was used to calculate the expected activity of mixtures containing two active ingredients, A and B: Expected=A+B−(A×B/100)

Another test has as its system LEFCH. Briefly: Postemergence foliar-applied weed control, direct-seeded rice (greenhouse). Type of test: in vivo, Leptochloa chinensis (L.) Nees (Chinese sprangletop). The procedure: as §1, with “When required to ensure good germination and healthy plants, a fungicide treatment and/or other chemical or physical treatment was applied.” left out
as §2, §4, §5, §6, §7
(§11) The treated plants and control plants were placed in a greenhouse as described above and watered by sub-irrigation to prevent wash-off of the test compounds. After approximately 3 weeks, the condition of the test plants as compared with that of the untreated plants was determined visually and scored on a scale of 0 to 100 percent where 0 corresponds to no injury or growth inhibition and 100 corresponds to complete kill.
as §9, §10

The subject of the next test is IPOHE. Described as above. Type of test: in vivo, Ipomoea hederacea (L.) Jacq. (ivyleaf morningglory). As to the method:
as §1, with “When required to ensure good germination and healthy plants, a fungicide treatment and/or other chemical or physical treatment was applied.” left out
as §2, §4, §5, §6, §7, §11, §9, §10

Another test has as its system ECHCG. The description is as above. Conditions: r10-11 ester 8/16 g ae/ha alone, r12-14 phthalide 100/200/300 g ai/ha alone, r15-20 ester 8/16 at each of 100, 200, 300. Type of test: in vivo, Echinochloa crus-galli (L.) P. Beauv. (barnyardgrass). The procedure:
as §1, with “When required to ensure good germination and healthy plants, a fungicide treatment and/or other chemical or physical treatment was applied.” left out
as §2, §4, §5, §6, §7, §11, §9, §10

For another test, the system named is DIGSA. The test is described as above. Type of test: in vivo, Digitaria sanguinalis (L.) Scop. (large crabgrass). The note with it: 21 DAA, r9-11 acid 5.3/10.6/21.2 g ae/ha alone, r12 propiconazole 190 g ai/ha alone, r13-15 acid 5.3/10.6/21.2 + 190.
Excerpt: as §1, §2, §3, §4, §5, §6, §7, §8

[1] abbreviates: r9-11 acid 5.3/10.6/21.2 g ae/ha alone, r12 myclobutanil 250 g ai/ha alone, r13-15 acid 5.3/10.6/21.2 + 250.

Results on 7 molecules are retold here after patent US9730445B2, “Herbicidal compositions comprising 4-amino-3-chloro-5-fluoro-6-(4-chloro-2-fluoro-3-methoxyphenyl) pyridine-2-carboxylic acid or a derivative thereof and fungicides” (DOW AGROSCIENCES LLC, priority 2013, dated 2017).

`COC(=O)Nc1nc2ccccc2[nH]1` [Carbendazim, methyl benzimidazol-2-ylcarbamate, reference compound]: the “Visual Weed Control (%) - 19 DAA ECHCO Obs” value in the test with ECHCO (r12-13 carbendazim 125/250 g ai/ha alone, r14-19 ester 8/16/32 at each of 125, 250) is 0%.

Consider `COc1c(Cl)ccc(-c2nc(C(=O)O)c(Cl)c(N)c2F)c1F` [Compound A Acid, 4-amino-3-chloro-5-fluoro-6-(4-chloro-2-fluoro-3-methoxy-phenyl)pyridine-2-carboxylic acid], for which the entries for the “Visual Weed Control (%) - 22 DAA CYPRO Obs” value in the test on CYPRO (Compound A Acid 10.6 g ae/ha), in the test with CYPRO (Compound A Acid 21.2 g ae/ha) and in the test on CYPRO (Compound A Acid 42.4 g ae/ha) were 0%, 25% and 95%, respectively.

As to `CC(C)Oc1cccc(NC(=O)c2ccccc2C(F)(F)F)c1` [Flutolanil, α,α,α-trifluoro-3′-isopropoxy-o-toluanilide, reference compound], in the test on ECHCO (r12-13 flutolanil 280/560 g ai/ha alone, r14-19 ester 8/16/32 at each of 280, 560), the “Visual Weed Control (%) - 19 DAA ECHCO Obs” value worked out at 0%. For the same molecule, the “Visual Weed Control (%) - 19 DAA LEFCH Obs” value in the test with LEFCH (19 DAA, r9-11 ester 8/16/32 g ae/ha alone, r12-13 flutolanil 280/560 g ai/ha alone, r14-19 ester 8/16/32 at each of 280, 560) is on record as 0%.

Consider `CCCCC(C#N)(Cn1cncn1)c1ccc(Cl)cc1` (stereo not drawn) [Myclobutanil, 2-p-chlorophenyl-2-(1H-1,2,4-triazol-1-ylmethyl)hexanenitrile, reference compound], for which the “Visual Weed Control (%) - 21 DAA IPOHE Obs” value in the test on IPOHE (setting [1]) is on record as 10%. Moreover, the “Visual Weed Control (%) - 21 DAA LEFCH Obs” value in the test with LEFCH (setting [1]) is 0%.

On to `O=C1OCc2c(Cl)c(Cl)c(Cl)c(Cl)c21` [Phthalide, 4,5,6,7-tetrachlorophthalide], for which the “Visual Weed Control (%) - 21 DAA ECHCG Obs” value with ECHCG is on record as 0%.

In the case of `CCCC1COC(Cn2cncn2)(c2ccc(Cl)cc2Cl)O1` (stereo not drawn) [Propiconazole, 1-[2-(2,4-dichlorophenyl)-4-propyl-1,3-dioxolan-2-ylmethyl]-1H-1,2,4-triazole, reference compound], the “Visual Weed Control (%) - 21 DAA DIGSA Obs” value in the test on DIGSA stood at 0%.

On to “manganese ethylenebis(dithiocarbamate) (polymeric) complex with zinc salt [Mancozeb, reference compound]”, for which the “Visual Weed Control (%) - 21 DAA IPOHE Obs” value with IPOHE (r20-22 ester 8/16/32 g ae/ha alone, r23 mancozeb 1680 g ai/ha alone, r24-26 ester 8/16/32 + 1680) came out at 0%. The “Visual Weed Control (%) - 21 DAA LEFCH Obs” value with LEFCH (r10-11 ester 16/32 g ae/ha alone, r12 mancozeb 840 g ai/ha alone, r13-14 ester 16/32 + 840) stood at 0%.
